Results: article PMC10101930 (Immunity, 2023)

Target: NHR-86 (Caenorhabditis elegans, UniProt Q965W2)
Test: intrinsic tryptophan fluorescence quenching of purified LBD
Format: binding

Chain of NHR-86 (Q965W2 130-405): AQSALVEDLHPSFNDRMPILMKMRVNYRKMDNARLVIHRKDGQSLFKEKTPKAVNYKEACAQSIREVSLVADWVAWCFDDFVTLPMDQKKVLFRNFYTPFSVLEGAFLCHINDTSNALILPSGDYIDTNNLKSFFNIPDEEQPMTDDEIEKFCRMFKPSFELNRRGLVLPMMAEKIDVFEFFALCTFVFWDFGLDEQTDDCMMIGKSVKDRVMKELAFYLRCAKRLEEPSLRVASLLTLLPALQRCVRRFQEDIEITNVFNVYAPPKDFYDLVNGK

NC(=O)c1cccc2nc3ccccc3nc12 [PCN, phenazine-1-carboxamide]
Kd: 24.2 µM
